# Test results as given in US20260097047A1, “Small molecule inhibitors of the ribosome biogenesis factor NVL2” (Board of Regents, The University of Texas System, priority 2023, published 2026).
# pIC50: −log10 of the molar value.
# Tests used:
# HCT116 NVL^R403W cells = experiment: Cell viability counter-screen in compound-resistant HCT116 NVL^R403W cells; type: cell-based, human; details: Homo sapiens, HCT-116; NVL^R403W knock-in
# Protocol: Design and synthesis of benzothiazepine-based NVL inhibitors. […] Analogs were evaluated against the colorectal cancer cell line HCT116, and counter-screened against a compound resistant NVL2^R403W clone. Cytotoxicity in wild-type HCT116 was determined. […] Initial SAR focused on exploring the replacement of the furan ring of initial dibenzothiazepinone hit MM017. We first explored a wide variety of mono- and di-substituted phenyl rings, including a broad spectrum of functionality (F, Cl, alkyl, alkoxy, fluoroalkoxy, CN, formamide, S(O) Me, carboxyl, . . . ). […]
# HCT116 cells were transfected with TransIT-LT (Mirus #MIR2304) according to manufacturer's protocol with a guide RNA (either mock or NVL targeting) in the px330 vector (Addgene, #42230), and 10 nM single stranded deoxyoligonucleotide encoding a specific NVL mutation (see below for specific sequences). […] The resulting cells were evaluated by cresyl violet staining or collected and the relevant NVL mutations were analyzed by either amplicon or sanger sequencing.
# Cell viability assay: In 96-well assay plates (Corning #2903), 2,000 cells were plated per well in 100 μL of medium and allowed to adhere overnight. […] Luminescence (CellTiter-Glo) was recorded using a Synergy 2 microplate reader (BioTek). […]
# 60S biogenesis = experiment: SNAP-tag labeling of existing and newly synthesized eL36 (60S) and eS17 (40S); type: cell-based, human; details: 24 hours
# Excerpt: The observed reduction in free 60S using polysome profiling could be the consequence of decreased 60S synthesis or accelerated 60S degradation, or a combination of the two. To distinguish between existing and newly synthesized 60S, we engineered HCT116 cells to express a C-terminal SNAP-tag on eL36, a ribosomal protein incorporated into the 60S subunit prior to NVL binding (39) or a control C-terminal SNAP-tag on a component of the small ribosomal subunit, eS17, to monitor 40S biogenesis (40). We first labeled existing eL36 or eS17 in cells with an Oregon green benzylguanine (green). Then, we treated cells for 24 hours with either vehicle or MM017 before adding a 647-SiR benzylguanine to label the pool of proteins synthesized over the 24-hour period and evaluated each polysome profile fraction for either existing or new proteins. […] MM017 treatment had no impact on the levels or fractionation pattern of existing eL36-SNAP.
# Next, we examined the impact of MM017 on the subcellular localization of eL36-SNAP (60S) or eS17-SNAP (40S). As expected for mature ribosomes, existing eL36-SNAP was nearly completely cytoplasmic, and treatment with MM017 had no impact on its localization. In vehicle treated cells, newly synthesized eL36-SNAP was both nucleolar and cytoplasmic, reflecting its presence in pre-60S and mature ribosomes. […]
# [1] = system: p53 and p21 in HCT116 NVL^R403W tumors; experiment: Pharmacodynamic study: p53 and p21 in HCT116 NVL^R403W xenograft tumors; type: in vivo, mouse; details: 35 mg/kg IP, opposing flank of same mice
# Protocol: Plasma exposure was dose-dependent up to 35 mg/kg (IP injection) reaching a maximum concentration at 17.86 μM. These levels exceed the anti-proliferative IC99 of MM927 in cells expressing either human or mouse NVL. In a subsequent pharmacodynamic (PD) study, we asked if we could assess on-target NVL inhibition via a subsequent p53 and/or p21 induction in tumor xenografts in mice treated with MM927. We implanted HCT116 NVL^WT and NVL^R403W cells subcutaneously on either flank of the mice and evaluated the levels of p53 and p21 in either tumor at various time points after IP administration of 35 mg/kg of MM927.
# Pharmacodynamic study: Five million parental HCT116 cells or HCT116 NVL^R403W in a volume of 0.1 mL were implanted using a subcutaneous injection in the left and right side of four-to-eight-week-old male and female NSG mice, respectively. Tumor volumes were measured every 2 to 4 days with calipers. When the tumor diameter reached 0.5 cm in diameter, mice were dosed with 35 mg/kg MM927 or vehicle formulated as 10% DMSO/10% Kolliphor EL/10% Solutal/70% D5W and administered via the intraperitoneal route. At each time point (0, 3, 6, 12, 24 hours post dose), tumors were harvested and flash frozen for Western blot analysis for p53 and p21 as described.
smiles,measurement,setting,value
COCCN1C(=O)c2ccccc2Sc2cc(NC(=O)c3ccoc3)ccc21 [MM017],pIC50,HCT116 NVL^R403W cells,< 4.30
same,effect on 40S subunits (eS17-SNAP),60S biogenesis,no impact on 40S subunits
same,newly synthesized eL36-SNAP in polysome profile fractions,60S biogenesis,"reduced in the 60S, 80S, and polysome fractions"
"CC#CCN1C(=O)c2ccc(F)cc2Sc2cc(NC(=O)c3ccc4oc(=O)n(C)c4c3)ccc21 [MM927, N-(10-(But-2-yn-1-yl)-3-fluoro-11-oxo-10,11-dihydrodibenzo[b,f][1,4]thiazepin-7-yl)-3-methyl-2-oxo-2,3-dihydrobenzo[d]oxazole-5-carboxamide]",p53 and p21 in NVL^R403W tumor,[1],no change in p53 and p21
